Test results: patent US20170306388A1, “Method for the Identification of Inhibitors and Activators of Thymidylate Kinases” (Carnegie Mellon University, priority 2016, published 2017)

Key:
CaTMPK [1] = assay: One-dimensional proton NMR activity assay of CaTMPK; type: biochemical, Candida albicans; details: substance as phosphate acceptor (1 mM), 1 mM ATP as phosphate donor, pH 7.4
From the text: Three different methods to assay for TMK activity have been reported in the literature. The first method uses isotope labeled [^14C] dTMP as substrate and utilizes the separation of dTMP and dTDP by thin-layer chromatography (TLC). The next method is a coupled enzymatic assay which involves the use of pyruvate kinase and lactate dehydrogenase to couple the production of ADP (a product of TMK activity) to the oxidation of NADH to NAD^+ which can be monitored spectrophotometrically at 340 nm. The third protocol involves the use of luciferin/luciferase to measure the concentration of unreacted ATP, or the amount to ADP in the TMK reaction mixture. All of these assays have inherent problems, ranging from the use of radioactivity to the potential inhibition of the coupling enzymes. Consequently, a simple one step assay to monitor the conversion of TMP to TDP was developed. The assay relies on the difference in the pyrimidine H6 proton chemical shifts of TMP and TDP (see FIG. 4). […] The new assay of the present invention also allows for the near-continuous measurement of product production, while current high-throughput assays are quench-stop type assays.
One-dimensional proton (^1H) NMR was used to monitor the activity of CaTMPK. The assay depends on the change in the chemical shift of the H6 proton (dTMP, AZTMP) or the H8 proton (dGMP) of the nucleobases upon the addition of the second phosphate group. The assay reaction included 50 mM Tris-HCl (pH 7.4), 50 mM KCl, 10 mM MgCl2, 1 mM ATP as the phosphate donor, 1 mM phosphate acceptor (dTMP, AZTMP or dGMP) and 10% D20. The reaction was initiated by the addition of CaTMPK to the reaction mix. A series of ^1H NMR spectra were acquired and the area (or height) of the proton line corresponding to the monophosphate forms of the acceptor molecule was plotted against time to calculate the initial rates of catalysis for each of the three substrates.

CaTMPK [2] = assay: NADH coupled enzyme activity assay (pyruvate kinase/lactate dehydrogenase) of CaTMPK; type: biochemical, Candida albicans; details: substance as phosphate acceptor, NADH decrease at 340 nm, pH 7.4
Method: The NADH coupled enzyme activity assay (Blondin, C., et al. (1994). Improved spectrophotometric assay of nucleoside monophosphate kinase activity using the pyruvate kinase/lactate dehydrogenase coupling system. Anal. Biochem 220, 219-221) is a well established assay to monitor the enzyme activity of thymidylate kinases. The assay was used to measure the activity of CaTMPK with the different phosphate acceptors (dTMP, AZTMP or dGMP). The reaction mixture consisted of 50 mM Tris-HCl (pH 7.4), 50 mM KCl, 10 mM MgCl2, 0.5 mM phosphoenolpyruvate, 0.15 mM NADH, 5 units/mL each of pyruvate kinase and lactate dehydrogenase. The reaction was initiated by adding the enzyme and the reaction rate was measured by monitoring the decrease of NADH concentration at 340 nm.

Row | Structure (SMILES) | kcat, nmr assay (CaTMPK [1]) [s⁻¹] | kcat, coupled enzyme assay (CaTMPK [2]) [s⁻¹]
1 | Cc1cn([C@H]2C[C@H](O)[C@@H](COP(=O)(O)O)O2)c(=O)[nH]c1=O [dTMP, deoxythymidine monophosphate] | 8.33 | 6.85
2 | Nc1nc2c(ncn2[C@H]2C[C@H](O)[C@@H](COP(=O)(O)O)O2)c(=O)[nH]1 [dGMP] | 0.00617 | 0.0083
3 | Cc1cn([C@H]2C[C@H](N=[N+]=[N-])[C@@H](COP(=O)(O)O)O2)c(=O)[nH]c1=O [AZTMP, azidothymidine monophosphate] | 0.533 | 0.305
